Experiments:
[1] = system: Mouse, rat cortical or hippocampal primary neurons; assay: In vitro drug candidate screening for neurotoxicity, ELISA of cell lysates; assay type: cell-based; details: primary neurons 21 DIV, glutamate 30 min, other agents 24 hours
Protocol: Mouse, rat cortical or hippocampal primary neurons are cultured for 21 DIV, and the dose dependent responses of drugs are investigated. Cultured cells are exposed to various concentrations of: Glutamate (0.01 to 1000 μM) in 10 μM glycine both in HBSS; B) 0.01 to 100 μM Kainate in culture media; C) H2O2 (0.001 to 1000 μM) in culture media; C) Zinc (0.01 to 1000 μM) in culture media; D) U0126 (0.001 to 100 μM) in culture media; and E) and equal volume of culture media as a control. Glutamate treatment is performed for 30 minutes after which the cells are washed and the HBSS is replaced with culture media and analyzed. The remaining candidates are treated for 24 hours and analyzed. The levels of intracellular UCH-L1 and SBDP 145 are analyzed following cell lysis and screening of the lysates by ELISA using anti-UCH-L1 and SBDP 145 specific antibodies. The levels of UCH-L1 are increased following exposure particularly to Glutamate and H2O2.

Male Sprague-Dawley rats [2] = assay: Kainic acid neurotoxicity rat model, Western blot of brain tissue for αII-spectrin and SBDPs; assay type: in vivo; details: 9 mg/kg s.c.; hippocampus and to a lesser extent cortex
Protocol: (§1) Male Sprague-Dawley rats (Harlan: Indianapolis, Ind.) with weight from 180 to 200 g are used. The rats are allowed free access to a normal laboratory diet and chlorinated potable water. All rats are acclimated for at least one week to the housing facilities and diet before being used in the study. The controls in the animal room are set to maintain a temperature of 20° C. to 24° C. and 30% to 70% relative humidity. Rats are maintained on a twelve-hour light/dark cycle.
(§2) Animals received single subcutaneous injections of Kaininc acid (Sigma, Chemical, St. Louis, Mo., USA) at dose 9 mg/kg and sacrificed at 24 h after injection. Separate control/treatment groups of animals are used. Brain tissues and CSF sample are collected at 6, 24, 48 and 72 h time points after injection.
(§3) At the appropriate time points, animals are anesthetized with 4% isoflurane in oxygen as a carrier gas for 4 minutes, followed by maintenance anesthesia of 2-3% isoflurane in the same carrier gas. The rats are placed in a stereotaxic instrument and about 100 μl of CSF from the cisterna magna of each animal is collected transcutaneously through 25 gauge needle attached to polyethylene tubing. CSF samples are frozen on dry ice immediately after collection. After CSF collection animals are removed from the stereotaxic instrument and anesthesia nose cone and the animal, still under anesthesia, is immediately sacrificed by decapitation. Cortex, hippocampus, cerebellum and striatum will be rapidly dissected out, rinsed in cold PBS and snap frozen in liquid nitrogen. To obtain brain tissue for IHC animals are euthanized with lethal dose of pentobarbital, transcardically perfused with 4% paraformaldehyde and whole brains are removed, processed and embedded in paraffin.
After SDS-gel electrophoresis in Tris-glycine buffer system and electrotransfer, blotting membranes are blocked for 1 hour at ambient temperature in 5% non-fat milk in Tris-buffered saline (TBS) and then in TBS containing 0.05% […] (TBST), then incubated in primary monoclonal anti-αII-spectrin antibodies (Biomol, Plymouth Meeting, Pa., USA) diluted ˜1:3000 (3.5 ul/10 ml) in PBS as recommended by the manufacturer at 4° C. overnight. […] Molecular weight of intact αll-spectrin protein and αll-spectrin breakdown products (SBDPs) are assessed by running alongside rainbow colored molecular weight standards (Amersham, Cat # RPN800V). Semi-quantitative evaluation of levels of αll-spectrin and of its breakdown products SBDP150 and SBDP145 and SBDP120 is performed using computer-assisted high-resolution flatbed scanner Epson XL3500 and densitometric image analysis with Image J software (NIH). […]

Male Sprague-Dawley rats [3] = assay: Kainic acid neurotoxicity rat model, immunohistochemistry of brain sections; assay type: in vivo
Protocol: as §1, §2, §3
IHC is performed on paraffin-embedded 6 μm brain sections. Slides are deparaffinized, incubated for 10 min at 95° C. in Trilogy solution (Cell Marque, Hot Springs, Ak.) for antigen retrieval, blocked for endogenous peroxides and incubated with 1 Abs (GFAP, SBDP145, SBDP150, SBDP120 and Casp 3) overnight at 4° C. followed by treatments with secondary Abs (LSAB+, # K0679, Dako). The staining is visualized with 3,3′-diaminobenzidine (DAB) (Dako, Carpinteria, Calif.) for brown color development. Sections are counterstained with Hematoxylin (Dako, Carpinteria, Calif.). Negative controls are performed by treatment only with species-matched secondary antibodies.

Male Sprague-Dawley rats [4] = assay type: in vivo, rat; details: 9 mg/kg s.c., compared with control group
Protocol: as §1, §2, §3
Serum and CSF sample concentrations of UCH-L1 are measured using a UCH-L1 sandwich enzyme-linked immunosorbent assay (ELISA) version lb modified from a protocol previously reported (Papa L. et al., 2010; Liu M. et al., 2009). Both mouse monoclonal antibody (capture antibody) and rabbit polyclonal antibody (detection antibody) are made in-house against recombinant human UCH-L1 full length protein and partial protein respectively). Both are affinity purified using target-protein-based affinity column. Their specificity to only target protein (UCH-L1) is confirmed by immunoblotting. Reaction wells are coated with capture antibody (5 μg/mL purified mouse monoclonal anti-human UCHL1) in 0.05 M sodium bicarbonate, pH 9.6 and incubated overnight at 4° C. […] Finally, the wells are developed with substrate solution: Ultra-TMB ELISA 100 μL/well (Pierce #34028) with incubation for 10 min, plate read at 450 nm with a 96-well spectrophotometer (Molecular Device Spectramax 190).
Serum and CSF sample concentrations of GFAP are measured using a GFAP sandwich enzyme-linked immunosorbent assay (ELISA) version 2a. […]

rats = assay: Kainic acid neurotoxicity rat model, biomarkers in blood plasma; assay type: in vivo; details: process of Example 5 with blood plasma in lieu of CSF; as a function of time
Description: The process of Example 5 is repeated with blood plasma as the subject sample source the rats in lieu of CSF.

[5] = system: Female Sprague-Dawley rats; assay: Acute in vivo drug candidate screening for neurotoxicity, biofluid biomarkers by sandwich ELISA or Western blot; details: rat, i.p., 30, 60, 90, 120 minutes following dosing, methamphetamine 40 mg/kg
Protocol: Anesthesia is performed with intraperitoneal injections of pentobarbital (50 mg/kg). The test substance can also be administered in a single dose by gavage using a stomach tube or a suitable intubation cannula. Animals are fasted prior to dosing. A total of four to eight animals of are used for each dose level investigated.
30, 60, 90, and 120 minutes following dosing, the rats are sacrificed by decapitation and blood is obtained by cardiac puncture. The levels of biofluid UCH-L1 and SBDP 150 and GFAP are analyzed by sandwich ELISA or Western blot by using UCH-L1 and SBDP 150 and GFAP specific antibodies.

[6] = 9 mg/kg s.c., hippocampus and cortex, vs control group

## N[C@@H](CCC(=O)O)C(=O)O [Glutamate]
[1]
  levels of intracellular UCH-L1: increased

## OO [H2O2]
[1]
  levels of intracellular UCH-L1: increased

## C=C(C)[C@H]1CN[C@H](C(=O)O)[C@H]1CC(=O)O [KA, Kainic acid]
Male Sprague-Dawley rats [2]
  SBDP120 breakdown fragment produced by caspase-3 (Western blot): appearance
  SBDP145 breakdown fragment produced by calpain (Western blot): appearance
  SBDP150 breakdown fragment produced by calpain (Western blot): appearance
  intact αII-spectrin level (Western blot): decrease
Male Sprague-Dawley rats [3]; [6]
  level of GFAP (IHC): increased level
  level of SBDP120 (IHC): increased level
  level of SBDP145 (IHC): increased level
  level of SBDP150 (IHC): increased level
Male Sprague-Dawley rats [3]; hippocampus of KA treated rats, FIG. 5
  level of αII-spectrin breakdown products (histology images): increased level
Male Sprague-Dawley rats [3]; hippocampus of KA treated rats, FIG. 7
  level of activated Caspase-3 (histology images): increased level
Male Sprague-Dawley rats [4]
  SBDP120 in CSF (ELISA): buildup
  SBDP145 in CSF (ELISA): buildup
  SBDP150 in CSF (ELISA): buildup
  expression of GFAP in CSF (ELISA): increase
  expression of UCHL 1 in CSF (ELISA): increase
rats
  Biomarker levels in blood plasma (UCHL 1, GFAP, NF-H): elevated

## CN[C@@H](C)Cc1ccccc1 [methamphetamine]
[5]
  biofluid GFAP level relative to control animals: increased
[5]; cisplatin 10 mg/kg
  biofluid SBDP 150 level relative to control animals: increased
  biofluid UCH-L1 level relative to control animals: increased
